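Test compounds were applied to cells in 96-well plates for 48 hours at 5 doses. The concentration for 50% growth inhibition is given as GI50.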 Activity calls are given as the source filed them. Rule as the data show it: active = GI50 up to about 1.1 µM and inactive = higher.
How the values were obtained:
Assay in all cases: NCI-60 cell line screen, 48 h
OVCAR-4 = test system: OVCAR-4
DU-145 = test system: DU-145
HOP-62 = test system: HOP-62
EKVX = test system: EKVX
SNB-75 = test system: SNB-75
HOP-92 = test system: HOP-92
NCI-H23 = test system: NCI-H23
U-251 = test system: U-251
SK-MEL-2 = test system: SK-MEL-2
UACC-257 = test system: UACC-257
BT-549 = test system: BT-549
SK-MEL-28 = test system: SK-MEL-28
SW-620 = test system: SW-620
NCI-H522 = test system: NCI-H522
OVCAR-3 = test system: OVCAR-3
ACHN = test system: ACHN
MDA-MB-435 = test system: MDA-MB-435
SN12C = test system: SN12C

Measured: GI50

C=C1[C@H]2O[C@H]2[C@@H](OC(C)=O)[C@@]2(C)[C@@H](OC(C)=O)C[C@@H](OC(=O)CCC)[C@@](C)(O)[C@@H]2[C@@H](OC(C)=O)[C@]2(O)[C@@H](C)C(=O)O[C@H]2[C@H]1Cl
inactive: OVCAR-4 > 100 µM | DU-145 > 100 µM | HOP-62 > 100 µM | EKVX > 100 µM | SNB-75 > 100 µM | HOP-92 > 100 µM | NCI-H23 > 100 µM | U-251 > 100 µM | SK-MEL-2 > 100 µM | UACC-257 > 100 µM | BT-549 > 100 µM | SK-MEL-28 > 100 µM | SW-620 > 100 µM | NCI-H522 > 100 µM | OVCAR-3 > 100 µM | ACHN > 100 µM | MDA-MB-435 > 100 µM | SN12C > 100 µM

CC1(C)OC[C@@]2([C@@H]3CC[C@@H](C3)C2(C)C)N1O
inactive: OVCAR-4 > 100 µM | DU-145 > 100 µM | HOP-62 > 100 µM | EKVX > 100 µM | SNB-75 > 100 µM | HOP-92 27.4 µM | NCI-H23 > 100 µM | U-251 88.9 µM | SK-MEL-2 > 100 µM | UACC-257 > 100 µM | BT-549 > 100 µM | SK-MEL-28 46.9 µM | SW-620 > 100 µM | NCI-H522 62.1 µM | OVCAR-3 > 100 µM | ACHN > 100 µM | MDA-MB-435 > 100 µM | SN12C > 100 µM

O=[N+]([O-])c1cccc(/N=C2\c3ccccc3CN2c2cccc([N+](=O)[O-])c2)c1
inactive: OVCAR-4 65.9 µM | DU-145 > 100 µM | HOP-62 > 100 µM | EKVX > 100 µM | SNB-75 24.8 µM | HOP-92 19.4 µM | NCI-H23 > 100 µM | U-251 > 100 µM | SK-MEL-2 > 100 µM | UACC-257 > 100 µM | BT-549 > 100 µM | SK-MEL-28 > 100 µM | SW-620 > 100 µM | NCI-H522 > 100 µM | OVCAR-3 65 µM | ACHN 74.5 µM | MDA-MB-435 > 100 µM | SN12C > 100 µM

COc1ccc(-c2nc(N3CCCC3)no2)cc1
inactive: OVCAR-4 34 µM | DU-145 43.2 µM | HOP-62 27.9 µM | EKVX 25.9 µM | SNB-75 34.1 µM | HOP-92 48.4 µM | NCI-H23 54.6 µM | U-251 86.3 µM | SK-MEL-2 46.1 µM | UACC-257 > 100 µM | BT-549 43.3 µM | SK-MEL-28 > 100 µM | SW-620 > 100 µM | NCI-H522 39.1 µM | OVCAR-3 72.8 µM | ACHN 35.8 µM | MDA-MB-435 > 100 µM | SN12C 74 µM

COC(=O)C(=O)C(C(=O)C(=O)Nc1cccc([N+](=O)[O-])c1)c1nc2ccc(Cl)cc2nc1O (configuration not stated)
inactive: OVCAR-4 > 100 µM | DU-145 > 100 µM | HOP-62 > 100 µM | EKVX 18.1 µM | SNB-75 77.1 µM | HOP-92 > 100 µM | NCI-H23 > 100 µM | U-251 > 100 µM | SK-MEL-2 > 100 µM | UACC-257 > 100 µM | BT-549 > 100 µM | SK-MEL-28 > 100 µM | SW-620 > 100 µM | NCI-H522 > 100 µM | OVCAR-3 > 100 µM | ACHN > 100 µM | MDA-MB-435 > 100 µM | SN12C > 100 µM

CSc1ccsc1-c1sc(-c2cc(SC)c(-c3sc(-c4cc(SC)c(-c5sccc5SC)s4)cc3SC)s2)cc1SC
inactive: OVCAR-4 > 100 µM | DU-145 96.8 µM | HOP-62 > 100 µM | EKVX > 100 µM | HOP-92 62.4 µM | NCI-H23 64.9 µM | U-251 67.3 µM | SK-MEL-2 > 100 µM | UACC-257 > 100 µM | BT-549 64.3 µM | SK-MEL-28 > 100 µM | SW-620 21.5 µM | NCI-H522 18.3 µM | OVCAR-3 49.8 µM | ACHN 32.9 µM | MDA-MB-435 20.9 µM | SN12C 42.3 µM

Cc1cn(C2CC(N=[N+]=[N-])C(CO)O2)c(=O)n(CCCCO)c1=O (configuration not stated)
inactive: OVCAR-4 > 100 µM | DU-145 > 100 µM | HOP-62 > 100 µM | EKVX > 100 µM | SNB-75 88.3 µM | HOP-92 > 100 µM | NCI-H23 > 100 µM | U-251 > 100 µM | SK-MEL-2 > 100 µM | UACC-257 > 100 µM | BT-549 > 100 µM | SK-MEL-28 > 100 µM | SW-620 > 100 µM | NCI-H522 > 100 µM | OVCAR-3 > 100 µM | ACHN > 100 µM | MDA-MB-435 > 100 µM | SN12C > 100 µM

COC(=O)C(Cc1c(-c2[nH]c3ccccc3c2CC(NC(C)=O)C(=O)OC)[nH]c2ccccc12)NC(C)=O (configuration not stated)
inactive: DU-145 > 100 µM | HOP-62 > 100 µM | EKVX > 100 µM | SNB-75 92 µM | HOP-92 > 100 µM | NCI-H23 > 100 µM | U-251 > 100 µM | SK-MEL-2 > 100 µM | UACC-257 > 100 µM | BT-549 > 100 µM | SK-MEL-28 > 100 µM | SW-620 > 100 µM | NCI-H522 16.3 µM | OVCAR-3 > 100 µM | ACHN > 100 µM | MDA-MB-435 > 100 µM | SN12C > 100 µM

Reference: ChEMBL document CHEMBL1201862, “PubChem BioAssay data set” (2004)
